Source: ChEMBL document CHEMBL1143967, “Targeted inhibition of hedgehog signaling by cyclopamine prodrugs for advanced prostate cancer” (Bioorg Med Chem, 2008)
Calls of active or inactive are those of the source. The rule behind the calls is not given here. *1 amine or outer side, *2 acyl side, *3 side chain or, on linkers, in order; H or OH if unused. Where a SMILES comes first, the peptide text is derived from it. The star is where a group is joined. X1 = CC1=C2C[C@H]3[C@@H](CC=C4C[C@@H](O)CC[C@@]43C)[C@@H]2CC[C@]12O[C@@H]1C[C@H](C)CN(*)[C@H]1[C@H]2C; Morpholide = C1CN(*)CCO1; CO = O=C([*:1])[*:2]

Tests used:
DU-145 [1] = assay: Growth inhibition of human DU145 cells at 5 uM after 96 hrs; format: functional, cell-based
DU-145 [2] = assay: Growth inhibition of human DU145 cells at 10 uM after 96 hrs; format: functional, cell-based
DU-145 [3] = assay: Increase in growth inhibition of human DU145 cells in presence of PSA after 96 hrs; format: functional, cell-based
[4] = Hydrolysis of prodrug assessed as half life in presence PSA; format: ADME

| SMILES | Activity (DU-145 [1]) | Activity (DU-145 [2]) | Activity (DU-145 [3]) | t1/2 [4] [h] |
| --- | --- | --- | --- | --- |
| CC1=C2C[C@H]3[C@@H](CC=C4C[C@@H](O)CC[C@@]43C)[C@@H]2CC[C@]12O[C@@H]1C[C@H](C)CN[C@H]1[C@H]2C | Active | Active | – | – |
| CC1=C2C[C@H]3[C@@H](CC=C4C[C@@H](O)CC[C@@]43C)[C@@H]2CC[C@]12O[C@@H]1C[C@H](C)CN(C(=O)[C@H](CCC(N)=O)NC(=O)[C@H](CC(C)C)NC(=O)[C@H](CCCCN)NC(=O)[C@H](CO)NC(=O)[C@H](CO)NC(=O)[C@H](Cc3c[nH]cn3)NC(=O)N3CCOCC3)[C@H]1[C@H]2C ({Morpholide-CO}-HSSKLQ-X1) | – | – | Active | 22 |
| CC1=C2C[C@H]3[C@@H](CC=C4C[C@@H](O)CC[C@@]43C)[C@@H]2CC[C@]12O[C@@H]1C[C@H](C)CN(C(=O)[C@H](CCC(N)=O)NC(=O)[C@H](Cc3ccc(O)cc3)NC(=O)[C@H](CCCCN)NC(=O)[C@H](CO)NC(=O)[C@H](CO)NC(=O)N3CCOCC3)[C@H]1[C@H]2C ({Morpholide-CO}-SSKYQ-X1) | – | – | – | 3.2 |
